Test results taken from patent US9730940B2, “Purine inhibitors of human phosphatidylinositol 3-kinase delta” (priority 2012, dated 2017).

Each compound was assayed against PI3K-alpha (Homo sapiens (Human), UniProt P42336) (assay: HTRF PI3K biochemical assay, alpha isoform). Conditions: ratio PI3K-alpha IC50 value/PI3K-delta IC50 value.
Chain of PI3K-alpha (P42336 whole entry, looked up, canonical isoform): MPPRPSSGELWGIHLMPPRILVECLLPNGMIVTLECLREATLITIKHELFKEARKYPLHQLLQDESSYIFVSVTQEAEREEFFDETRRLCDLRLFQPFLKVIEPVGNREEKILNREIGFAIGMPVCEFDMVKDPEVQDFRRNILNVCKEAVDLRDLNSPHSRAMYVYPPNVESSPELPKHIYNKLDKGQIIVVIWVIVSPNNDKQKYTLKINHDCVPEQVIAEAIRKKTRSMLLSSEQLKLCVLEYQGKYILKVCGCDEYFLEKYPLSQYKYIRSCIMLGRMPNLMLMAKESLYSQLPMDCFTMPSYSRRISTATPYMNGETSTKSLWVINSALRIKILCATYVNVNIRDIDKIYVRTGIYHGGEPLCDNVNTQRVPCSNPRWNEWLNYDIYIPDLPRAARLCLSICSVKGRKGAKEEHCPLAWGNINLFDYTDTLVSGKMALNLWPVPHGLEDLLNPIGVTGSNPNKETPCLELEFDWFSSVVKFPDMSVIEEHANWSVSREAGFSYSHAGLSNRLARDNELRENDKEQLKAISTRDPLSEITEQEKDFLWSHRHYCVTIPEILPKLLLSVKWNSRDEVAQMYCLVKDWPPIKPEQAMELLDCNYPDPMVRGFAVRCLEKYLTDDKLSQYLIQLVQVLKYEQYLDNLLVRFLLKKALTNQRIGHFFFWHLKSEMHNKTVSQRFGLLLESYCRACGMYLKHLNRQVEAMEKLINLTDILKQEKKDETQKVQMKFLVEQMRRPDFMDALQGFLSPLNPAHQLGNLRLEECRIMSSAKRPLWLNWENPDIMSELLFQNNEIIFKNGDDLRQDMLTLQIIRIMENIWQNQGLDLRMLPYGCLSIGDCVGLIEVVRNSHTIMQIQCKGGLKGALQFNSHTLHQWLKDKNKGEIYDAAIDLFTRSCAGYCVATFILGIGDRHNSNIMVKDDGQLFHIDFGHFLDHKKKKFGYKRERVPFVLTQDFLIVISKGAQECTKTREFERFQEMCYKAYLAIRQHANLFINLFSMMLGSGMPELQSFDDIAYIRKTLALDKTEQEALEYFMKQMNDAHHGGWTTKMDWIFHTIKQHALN
Chain of PI3K-alpha (P27986 whole entry partner, looked up, canonical isoform): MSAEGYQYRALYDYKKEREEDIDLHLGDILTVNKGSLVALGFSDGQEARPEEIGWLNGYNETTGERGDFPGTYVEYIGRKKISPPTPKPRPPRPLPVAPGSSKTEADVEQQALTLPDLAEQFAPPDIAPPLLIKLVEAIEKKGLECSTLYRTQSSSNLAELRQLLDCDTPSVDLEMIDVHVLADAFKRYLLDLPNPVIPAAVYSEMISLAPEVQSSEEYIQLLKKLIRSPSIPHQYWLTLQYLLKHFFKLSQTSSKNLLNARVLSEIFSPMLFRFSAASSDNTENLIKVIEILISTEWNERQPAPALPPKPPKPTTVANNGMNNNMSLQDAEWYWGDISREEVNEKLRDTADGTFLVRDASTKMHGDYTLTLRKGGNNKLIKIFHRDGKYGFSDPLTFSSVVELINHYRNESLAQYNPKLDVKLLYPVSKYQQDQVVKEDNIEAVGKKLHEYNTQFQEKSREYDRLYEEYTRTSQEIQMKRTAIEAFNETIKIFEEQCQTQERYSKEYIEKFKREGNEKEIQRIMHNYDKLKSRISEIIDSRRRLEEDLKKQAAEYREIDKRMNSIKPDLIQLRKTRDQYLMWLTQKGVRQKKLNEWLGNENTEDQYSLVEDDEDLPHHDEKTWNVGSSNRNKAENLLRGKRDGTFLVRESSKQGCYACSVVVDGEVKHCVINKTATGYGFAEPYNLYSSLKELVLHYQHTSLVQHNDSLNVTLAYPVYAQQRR

Structure (SMILES)	Relative Selectivity versus PI3Kalpha
CCC(=O)N1CC[C@H](Oc2ncnc3c2nc(-c2ccc4cc[nH]c4c2)n3C)C1 [Compound 3-4, (S)-1-(3-((8-(1H-indol-6-yl)-9-methyl-9H-purin-6-yl)oxy)pyrrolidin-1-yl)propan-1-one]	>10
CCn1c(-c2cnc(C)nc2)nc2c(O[C@H]3CCN(c4ccc(F)cc4)C3)ncnc21 [Compound 7-20, 9-ethyl-6-{[(3S)-1-(4-fluorophenyl)pyrrolidin-3-yl]oxy}-8-(2-methylpyrimidin-5-yl)-9H-purine]	>10
CCC(=O)N1CC[C@H](Oc2ncnc3c2nc(-c2cnn(-c4ccccc4)c2C)n3C)C1 [Compound 3-12, 9-methyl-8-(5-methyl-1-phenyl-1H-pyrazol-4-yl)-6-{[(3S)-1-propanoylpyrrolidin-3-yl]oxy}-9H-purine]	>10
CCOC(=O)N1CC[C@H](Sc2ncnc3c2nc(-c2cnn(CC)c2C)n3C)C1 [Compound 10-8, (S)-ethyl 3-((8-(1-ethyl-5-methyl-1H-pyrazol-4-yl)-9-methyl-9H-purin-6-yl)thio)pyrrolidine-1-carboxylate]	>10
CCn1c(-c2cnc(C)nc2)nc2c(O[C@H]3CCN(C(=O)N(C)C4CC4)C3)ncnc21 [Compound 5-10, (3S)-N-cyclopropyl-3-{[9-ethyl-8-(2-methylpyrimidin-5-yl)-9H-purin-6-yl]oxy}-N-methylpyrrolidine-1-carboxamide]	>10
CCC(=O)N1CC[C@H](Oc2ncnc3c2nc(-c2cnn(CC)c2C)n3CC)C1 [Compound 2-93, (S)-1-(3-((9-ethyl-8-(1-ethyl-5-methyl-1H-pyrazol-4-yl)-9H-purin-6-yl)oxy)pyrrolidin-1-yl)propan-1-one]	>10
CCC(=O)N1CC[C@H](Oc2ncnc3[nH]c(-c4cnn(CC)c4C)nc23)C1 [Compound 3-13, 8-(1-ethyl-5-methyl-1H-pyrazol-4-yl)-6-{[(3S)-1-propanoylpyrrolidin-3-yl]oxy}-9H-purine]	>10
CCn1c(-c2cnc(N(C)C)nc2)nc2c(O[C@H]3CCN(C(=O)C4CC4)C3)ncnc21 [Compound 3-45, 5-(6-{[(3S)-1-(cyclopropylcarbonyl)pyrrolidin-3-yl]oxy}-9-ethyl-9H-purin-8-yl)-N,N-dimethylpyrimidin-2-amine]	>10
CCn1c(-c2cnc(C)nc2)nc2c(O[C@H]3CCN(c4ccccc4)C3)ncnc21 [Compound 7-19, 9-ethyl-8-(2-methylpyrimidin-5-yl)-6-{[(3S)-1-phenylpyrrolidin-3-yl]oxy}-9H-purine]	>10
CCn1c(-c2cnc(C)nc2)nc2c(O[C@H]3CCN(C(=O)C4CCC4C)C3)ncnc21 (single isomer, unassigned) [Compound 2-119, 9-ethyl-6-({(3S)-1-[([(1R,2S) or (1R,2R) or (1S,2R) or (1S,2S)]-methy]cyclobutyl)carbonyl]pyrrolidin-3-yl}oxy)-8-(2-methylpyrimidin-5-yl)-9H-purine]	>10
CCn1ncc(-c2nc3c(O[C@H]4CCN(C(=O)C5CC(=O)N(C(C)C)C5)C4)ncnc3n2C)c1C (stereo partly drawn) [Compound 2-77, 4-{[(3S)-3-{[8-(1-ethyl-5-methyl-1H-pyrazol-4-yl)-9-methyl-9H-purin-6-yl]oxy}pyrrolidin-1-yl]carbonyl}-1-(1-methylethyl)pyrrolidin-2-one]	>10
CCn1ncc(-c2nc3c(O[C@H]4CCN(C(=O)c5ccn(C)n5)C4)ncnc3n2C)c1C [Compound 2-37, 8-(1-ethyl-5-methyl-1H-pyrazol-4-yl)-9-methyl-6-({(3S)-1-[(1-methyl-1H-pyrazol-3-yl)carbonyl]pyrrolidin-3-yl}oxy)-9H-purine]	>10
CCn1ncc(-c2nc3c(O[C@H]4CCN(C(=O)OCc5ccccc5)C4)ncnc3n2C)c1C [Compound 1-6, benzyl (3S)-3-{[8-(1-ethyl-5-methyl-1H-pyrazol-4-yl)-9-methyl-9H-purin-6-yl]oxy}pyrrolidine-1-carboxylate]	4
CCn1ncc(-c2nc3c(O[C@H]4CCN(c5cncc(C)n5)C4)ncnc3n2C)c1C [Compound 7-11, 8-(1-ethyl-5-methyl-1H-pyrazol-4-yl)-9-methyl-6-{[(3S)-1-(6-methylpyrazin-2-yl)pyrrolidin-3-yl]oxy}-9H-purine]	>10
CCn1c(-c2cnc(C)nc2)nc2c(O[C@H]3CCN(C(=O)CC(C)(C)N)C3)ncnc21 [Compound 2-114, 4-[(3S)-3-{[9-ethyl-8-(2-methylpyrimidin-5-yl)-9H-purin-6-yl]oxy}pyrrolidin-1-yl]-2-methyl-4-oxobutan-2-amine]	>10
CCn1c(-c2cnc(C)nc2C)nc2c(O[C@H]3CCN(C(=O)C4CC4)C3)ncnc21 [Compound 3-29, 6-{[(3S)-1-(cyclopropylcarbonyl)pyrrolidin-3-yl]oxy}-8-(2,4-dimethylpyrimidin-5-yl)-9-ethyl-9H-purine]	>10
CCC(=O)N1CC[C@H](Oc2ncnc3c2nc(-c2ccc(C)nc2)n3C)C1 [Compound 3-8, (S)-1-(3-((9-methyl-8-(6-methylpyridin-3-yl)-9H-purin-6-yl)oxy)pyrrolidin-1-yl)propan-1-one]	>10
CCC(=O)N1CC[C@H](Oc2ncnc3c2nc(-c2cnn(-c4ccccc4)c2)n3C)C1 [Compound 3-11, 9-methyl-8-(1-phenyl-1H-pyrazol-4-yl)-6-{[(3S)-1-propanoylpyrrolidin-3-yl]oxy}-9H-purine]	>10
CCC(=O)N1CC[C@H](Oc2ncnc3c2nc(-c2ccc4cn[nH]c4c2)n3C)C1 [Compound 3-1, (S)-1-(3-((8-(1H-indazol-6-yl)-9-methyl-9H-purin-6-yl)oxy)pyrrolidin-1-yl)propan-1-one]	>10
CCC(=O)N1CC[C@H](Oc2ncnc3c2nc(-c2cnc(C)nc2)n3C)C1 [Compound 3-20, 9-methyl-8-(2-methylpyrimidin-5-yl)-6-{[(3S)-1-propanoylpyrrolidin-3-yl]oxy}-9H-purine]	>10
Cc1ncc(-c2nc3c(OC4CCN(C(=O)OC(C)(C)C)C4)ncnc3n2C)cn1 [Compound 1-14, terl-butyl (3S)-3-{[9-methyl-8-(2-methylpyrimidin-5-yl)-9H-purin-6-yl]oxy}pyrrolidine-1-carboxylate]	>10
CCn1ncc(-c2nc3c(O[C@H]4CCN(C(=O)c5cnon5)C4)ncnc3n2C)c1C [Compound 2-29, 8-(1-ethyl-5-methyl-1H-pyrazol-4-yl)-9-methyl-6-{[(3S)-1-(1,2,5-oxadiazol-3-ylcarbonyl)pyrrolidin-3-yl]oxy}-9H-purine]	1
CCn1c(-c2cnc(C)nc2)nc2c(O[C@H]3CCN(C(=O)C4CC4C(F)F)C3)ncnc21 (single isomer, unassigned) [Compound 2-124, 6-{[(3S)-{(1S,2S)- or (1R,2R)-[2-(difluoromethyl)cyclopropyl]carbonyl}pyrrolidin-3-yl]oxy}-9-ethyl-8-(2-methylpyrimidin-5-yl)-9H-purine]	>10
